# Reference: US20240307423A1, “FRACTIONS OF, AND MOLECULES RELEASED IN, PROTEIN RICH PLASMA WHICH INHIBIT IMMUNE RESPONSES AND REDUCE INFLAMMATION, AND METHODS OF OBTAINING” (NEW YORK SOCIETY FOR THE RELIEF OF THE RUPTURED AND …, priority 2021, published 2024)
# Assays:
# [1] = test system: TLR9+CXCL4-activated human plasmacytoid dendritic cells (pDCs); assay: IFN-α secretion (ELISA) by purified pDCs activated with CpG-B (TLR9 ligand) + CXCL4; format: cell-based; details: CXCL4 present
# Procedure: (§1) PBMCs were prepared using Ficoll-Paque density gradient from fresh blood under internal Institutional Review Board-approved protocols. pDCs were isolated as previously described (Guiducci et al. 2008) using either using negative depletion (Miltenyi Biotech) or following cell sorting using a […]. All BDCA4+ cells also express BDCA2 (results not shown). As a result, pure pDCs were obtained and no markers for neutrophils (CD66) or myeloid cells were found by PCR.
# (§2) For the TLR9 activation in pDCs, the cells were incubated in complete media alone, or CpG-B 1018 (0.25 or 1 μM), or CpG-C 274 at similar concentrations. In some assays, cells were also incubated with 10 μg/ml CXCL4 (R&D systems).
# (§3) Supernatant from B cells and pDCs 24 hour culture was used for quantification of secreted IFNα with the use of an enzyme-linked immunosorbent assay (ELISA) (Mabtech) performed according to the manufacturer's protocol.
# (§4) Data were analyzed using a Mann-Whitney U-test (t test using non parametric criteria for independent samples). Comparisons between PBMC and pDCs-depleted PBMC were tested using a parametric paired t-test. All analyses were performed using Prism software (GraphPad Software). Differences were considered significant at a P level less than 0.05 with *p<0.05; **p<0.01; ***p<0.001.
# [2] = test system: TLR9-activated human plasmacytoid dendritic cells (pDCs); assay: IFN-α secretion (ELISA) by purified pDCs activated with TLR9 ligand alone (CpG1018 / CpG C274); format: cell-based; details: without CXCL4; various dilutions
# Procedure: as §1, §2, §3, §4
compound,measurement,setting,value
"CC(=O)N[C@H]1[C@H]([C@H](O)[C@H](O)CO)O[C@@](O)(C(=O)O)C[C@@H]1O [N-Acetylneuraminic acid, 5-(acetylamino)-3,5-dideoxy-D-glycero-α-D-galacto-non-2-ulopyranosonic acid]","inhibitory effect on TLR9-activated pDCs, IFN-α production relative to CpG-CXCL4",[1],significant inhibitory effect
same,"inhibitory effect on TLR9-activated pDCs, IFN-α production relative to the TLR9 agonist CpG C274",[2],significant inhibitory effect
